According to the supplement of paper PMC10307832:

Columns and labels:
Assay in all cases: relative viability (nuclei count vs DMSO), 5 days (fraction); higher = more cells survive
Adavosertib + Dasatinib = compound: C=CCn1c(=O)c2cnc(Nc3ccc(N4CCN(C)CC4)cc3)nc2n1-c1cccc(C(C)(C)O)n1 [Adavosertib] + Cc1nc(Nc2ncc(C(=O)Nc3c(C)cccc3Cl)s2)cc(N2CCN(CCO)CC2)n1 [Dasatinib] (partner 0.075 µM)
Procedure, shortened: (§1)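 The day after seeding in 1536-well plates, lung cancer cell lines were treated by pin tool with a single drug, or with a fixed anchor-drug dose together with five library-drug doses (not always all listed) in √10 steps. After 5 days, a combined fix-and-stain solution (final 0.05% Triton X-100, 1% formaldehyde, 1 ug/ml Hoechst) was added. Nuclei counted on 4× images gave relative viability as treated counts over vehicle counts, reported as the median of duplicate plates.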

Nelarabine + Trametinib = compound: COc1nc(N)nc2c1ncn2[C@@H]1O[C@H](CO)[C@@H](O)[C@@H]1O [Nelarabine] + CC(=O)Nc1cccc(-n2c(=O)n(C3CC3)c(=O)c3c(Nc4ccc(I)cc4F)n(C)c(=O)c(C)c32)c1 [Trametinib] (partner 0.02 µM)
Procedure, shortened: as §1

Nelarabine + Foretinib = compound: COc1nc(N)nc2c1ncn2[C@@H]1O[C@H](CO)[C@@H](O)[C@@H]1O [Nelarabine] + COc1cc2c(Oc3ccc(NC(=O)C4(C(=O)Nc5ccc(F)cc5)CC4)cc3F)ccnc2cc1OCCCN1CCOCC1 [Foretinib] (partner 0.25 µM)
Procedure, shortened: as §1

Nelarabine + Pictilisib = compound: COc1nc(N)nc2c1ncn2[C@@H]1O[C@H](CO)[C@@H](O)[C@@H]1O [Nelarabine] + CS(=O)(=O)N1CCN(Cc2cc3nc(-c4cccc5[nH]ncc45)nc(N4CCOCC4)c3s2)CC1 [Pictilisib] (partner 1 µM)
Procedure, shortened: as §1

Cell Line | relative viability (Adavosertib + Dasatinib; first compound 0.01 µM) | relative viability (Adavosertib + Dasatinib; first compound 0.03162 µM) | relative viability (Adavosertib + Dasatinib; first compound 0.1 µM) | relative viability (Adavosertib + Dasatinib; first compound 0.3162 µM) | relative viability (Nelarabine + Trametinib; first compound 0.01 µM) | relative viability (Nelarabine + Trametinib; first compound 0.03162 µM) | relative viability (Nelarabine + Trametinib; first compound 0.1 µM) | relative viability (Nelarabine + Trametinib; first compound 0.3162 µM) | relative viability (Nelarabine + Trametinib; first compound 1 µM) | relative viability (Nelarabine + Foretinib; first compound 0.01 µM) | relative viability (Nelarabine + Foretinib; first compound 0.03162 µM) | relative viability (Nelarabine + Foretinib; first compound 0.1 µM) | relative viability (Nelarabine + Foretinib; first compound 0.3162 µM) | relative viability (Nelarabine + Foretinib; first compound 1 µM) | relative viability (Nelarabine + Pictilisib; first compound 0.01 µM) | relative viability (Nelarabine + Pictilisib; first compound 0.03162 µM) | relative viability (Nelarabine + Pictilisib; first compound 0.1 µM) | relative viability (Nelarabine + Pictilisib; first compound 0.3162 µM) | relative viability (Nelarabine + Pictilisib; first compound 1 µM)
NCI-H2087 | 0.901 | 0.786 | 0.893 | 0.845 | 0.181 | 0.167 | 0.196 | 0.245 | 0.202 | 1.43 | 0.917 | 1.06 | 1.01 | 1.11 | 0.961 | 0.975 | 0.99 | 1.22 | 1.02
HCC-827 | 0.282 | 0.284 | 0.264 | 0.282 | 0.537 | 0.559 | 0.521 | 0.454 | 0.478 | 1.01 | 0.925 | 0.87 | 0.822 | 0.716 | 0.956 | 0.863 | 0.931 | 0.814 | 0.76
NCI-H520 | 0.194 | 0.181 | 0.183 | 0.217 | 0.817 | 0.599 | 0.757 | 0.903 | 0.697 | 1.06 | 0.799 | 0.95 | 0.789 | 0.676 | 0.387 | 0.256 | 0.345 | 0.322 | 0.314
NCI-H1734 | 0.53 | 0.469 | 0.464 | 0.318 | 0.829 | 0.615 | 0.666 | 0.666 | 0.627 | 1.01 | 0.818 | 0.83 | 0.949 | 0.846 | 0.561 | 0.538 | 0.516 | 0.479 | 0.452
NCI-H2009 | 0.318 | 0.294 | 0.297 | 0.178 | 0.28 | 0.224 | 0.215 | 0.287 | 0.266 | 1.19 | 1.2 | 1.31 | 1.22 | 1.27 | 1.31 | 0.917 | 0.841 | 1.03 | 0.93
NCI-H1993 | 0.63 | 0.503 | 0.719 | 0.618 | 0.531 | 0.48 | 0.479 | 0.487 | 0.588 | 0.845 | 0.712 | 0.737 | 0.831 | 0.708 | 0.718 | 0.81 | 0.894 | 0.779 | 0.899
